Where “and” joins values, the source holds several entries; their conditions need not be identical. Identical values can stand only once. Toxic doses and inconclusive results are not listed. Where a SMILES comes first, the peptide text is derived from it.

The subject of this assay is B6C3F1 mice, B16 melanoma ip, median survival T/C. Nature of the assay: NCI In Vivo Anticancer Drug Screen. Data for tumor model B16 Melanoma (intraperitoneal) in B6C3F1 mice. The settings on record: endpoint: median survival time, higher = longer survival. As for the experimental part: The antitumor activity of compounds was measured in mice bearing transplantable tumors. Survival or tumor size were measured and the results are expressed as the measurement made in the treated group (T) divided by the measurement made in the vehicle treated control group (C). The tumor model used in this assay is B16 Melanoma (intraperitoneal) in B6C3F1 mice

Where [1] appears, read: dose: 12.5 mg/kg/injection, schedule: Q01DX009 (ip), vehicle: distilled water + Tween-80.
The mark [2] stands for this setting: dose: 12.5 mg/kg/injection, schedule: Q01DX009 (ip), vehicle: saline with Tween-80.
Where [3] appears, read: dose: 25.0 mg/kg/injection, schedule: Q01DX009 (ip), vehicle: distilled water + Tween-80.
[4] abbreviates: dose: 400.0 mg/kg/injection, schedule: Q01DX009 (ip), vehicle: saline with Tween-80.
The mark [5] stands for this setting: dose: 25.0 mg/kg/injection, schedule: Q01DX009 (ip), vehicle: Klucel (hydroxypropylcellulose) (HPC).
Setting [6] is: dose: 50.0 mg/kg/injection, schedule: Q01DX009 (ip), vehicle: Klucel (hydroxypropylcellulose) (HPC).
[7] abbreviates: dose: 100.0 mg/kg/injection, schedule: Q01DX009 (ip), vehicle: Klucel (hydroxypropylcellulose) (HPC).
The mark [8] stands for this setting: dose: 200.0 mg/kg/injection, schedule: Q01DX009 (ip), vehicle: Klucel (hydroxypropylcellulose) (HPC).
Setting [9] is: dose: 100.0 mg/kg/injection, schedule: Q01DX009 (ip), vehicle: saline with Tween-80.
Setting [10] is: dose: 200.0 mg/kg/injection, schedule: Q01DX009 (ip), vehicle: saline with Tween-80.
Where [11] appears, read: dose: 25.0 mg/kg/injection, schedule: Q01DX009 (ip), vehicle: saline.
[12] abbreviates: dose: 50.0 mg/kg/injection, schedule: Q01DX009 (ip), vehicle: saline.
The mark [13] stands for this setting: dose: 100.0 mg/kg/injection, schedule: Q01DX009 (ip), vehicle: saline.
Setting [14] is: dose: 200.0 mg/kg/injection, schedule: Q01DX009 (ip), vehicle: saline.
Setting [15] is: dose: 400.0 mg/kg/injection, schedule: Q01DX009 (ip), vehicle: saline.
Setting [16] is: dose: 6.25 mg/kg/injection, schedule: Q01DX009 (ip), vehicle: saline with Tween-80.

Consider `Cc1ccc(C(=O)NC2C(=O)NC(C(C)C)C(=O)N3CCCC3C(=O)N(C)CC(=O)N(C)C(C(C)C)C(=O)OC2C)c2c1Oc1c(c(C(=O)NC3C(=O)NC(C(C)C)C(=O)N4CCCC4C(=O)N(C)CC(=O)N(C)C(C(C)C)C(=O)OC3C)c3nc(-c4ccccc4)c(=O)oc3c1C)N2` (configuration not stated), for which, under “dose: 0.5 mg/kg/injection, schedule: Q01DX009 (ip), vehicle: water”, the T/C was 157 % of control.
Turning to `NC(=S)N/N=C\c1ncccc1OCc1cccc(N)c1`, the T/C by setting is: under setting [1], 86 % of control; under setting [2], 103 % of control; under setting [3], 100 % of control; (dose: 25.0 mg/kg/injection, schedule: Q01DX009 (ip), vehicle: saline with Tween-80) 109 % of control and 113 % of control and 106 % of control; (dose: 50.0 mg/kg/injection, schedule: Q01DX009 (ip), vehicle: distilled water + Tween-80) 114 % of control; (dose: 100.0 mg/kg/injection, schedule: Q01DX009 (ip), vehicle: distilled water + Tween-80) 108 % of control. Besides, the T/C (dose: 200.0 mg/kg/injection, schedule: Q01DX009 (ip), vehicle: distilled water + Tween-80) was 118 % of control; the T/C (dose: 400.0 mg/kg/injection, schedule: Q01DX009 (ip), vehicle: distilled water + Tween-80) is 99 % of control; the T/C under setting [4] is 113 % of control and 121 % of control.
Consider `O=C1CC2(C(=O)N1CN1CCCCC1)c1ccccc1-c1ccccc12`, for which the T/C reads like this: (dose: 12.5 mg/kg/injection, schedule: Q01DX009 (ip), vehicle: Klucel (hydroxypropylcellulose) (HPC)) 91 % of control; under setting [5], 95 % of control; under setting [6], 95 % of control; under setting [7], 110 % of control; under setting [8], 92 % of control.
Consider `Cc1ccnc(NN=O)c1`, for which the T/C is, setting by setting: (dose: 3.12 mg/kg/injection, schedule: Q01DX009 (ip), vehicle: water) 99 % of control; (dose: 6.25 mg/kg/injection, schedule: Q01DX009 (ip), vehicle: water) 100 % of control.
Turning to `O=C(CCl)NC(Cc1ccccc1)C(=O)O` (configuration not stated), the T/C runs as follows: (dose: 50.0 mg/kg/injection, schedule: Q01DX009 (ip), vehicle: saline with Tween-80) 88 % of control; under setting [9], 90 % of control; under setting [10], 90 % of control.
In the case of `OCC1(CO)COC2(CCCCC2)N1`, the T/C runs as follows: (dose: 6.25 mg/kg/injection, schedule: Q01DX009 (ip), vehicle: saline) 95 % of control; (dose: 12.5 mg/kg/injection, schedule: Q01DX009 (ip), vehicle: saline) 119 % of control and 96 % of control and 103 % of control; under setting [11], 114 % of control and 102 % of control and 104 % of control; under setting [12], 114 % of control and 96 % of control and 104 % of control; under setting [13], 112 % of control and 94 % of control and 104 % of control; under setting [14], 111 % of control and 99 % of control. Further, the T/C under setting [15] is 109 % of control and 93 % of control.
In the case of `CNC(=O)OCc1c(COC(=O)NC)c(-c2ccccc2)n(C)c1-c1ccccc1`, the T/C under setting [1] is 172 % of control and the T/C under setting [3] was 177 % of control.
As to `[N-]=[N+]=CC(=O)CCC(NC(=O)OCc1ccccc1)C(=O)OCc1ccccc1` (configuration not stated), the T/C is, setting by setting: under setting [5], 93 % of control; under setting [6], 96 % of control.
Turning to `O=C(O)CNC(=O)CNC(=O)C(Cc1cnc[nH]1)NC(=O)OCc1ccccc1` (configuration not stated) (HELM PEPTIDE1{[O=C(OCc1ccccc1)[*:2]].[O=C(C(Cc1c[nH]cn1)N[*:1])[*:2]].G.G}$$$$V2.0), the T/C is, setting by setting: under setting [9], 89 % of control; under setting [10], 91 % of control; under setting [4], 97 % of control.
As for `CC[C@@]1(O)C[C@H](OC2CC(N(C)C)C(OC3CC(O)C(OC4CCC(=O)C(C)O4)C(C)O3)C(C)O2)c2c(cc3c(c2O)C(=O)c2c(O)cccc2C3=O)[C@H]1C(=O)OC` (some centres not stated), the T/C (dose: 3.0 mg/kg/injection, schedule: Q01DX009 (ip), vehicle: saline with Tween-80) was 151 % of control.
Consider `Oc1cc(O)cc(/C=C/c2ccc(O)c(O)c2)c1`, for which the T/C is 118 % of control (dose: 6.25 mg/kg/injection, schedule: Q01DX009 (ip), vehicle: DMSO); 111 % of control (dose: 12.5 mg/kg/injection, schedule: Q01DX009 (ip), vehicle: DMSO); 117 % of control (dose: 50.0 mg/kg/injection, schedule: Q01DX009 (ip), vehicle: DMSO); 113 % of control and 96 % of control (dose: 100.0 mg/kg/injection, schedule: Q01DX009 (ip), vehicle: DMSO).
`COC12C(COC(N)=O)C3=C(C(=O)C(C)=C(N)C3=O)N1CC1C2N1C` (configuration not stated): the T/C is 112 % of control and 99 % of control (dose: 1.0 mg/kg/injection, schedule: Q01DX009 (ip), vehicle: saline); 88 % of control (dose: 2.0 mg/kg/injection, schedule: Q01DX009 (ip), vehicle: saline); 111 % of control and 89 % of control (dose: 8.0 mg/kg/injection, schedule: Q01DX009 (ip), vehicle: saline).
For the molecule `Cc1cc(Cc2cc(C)c(C)c(C)c2C)c(C)c(C)c1C`, the T/C (dose: 0.78 mg/kg/injection, schedule: Q01DX009 (ip), vehicle: saline with Tween-80) was 89 % of control; the T/C (dose: 1.56 mg/kg/injection, schedule: Q01DX009 (ip), vehicle: saline with Tween-80) was 91 % of control; the T/C (dose: 3.13 mg/kg/injection, schedule: Q01DX009 (ip), vehicle: saline with Tween-80) was 100 % of control; the T/C under setting [16] is 106 % of control.
With `C1CN1P1(N2CC2)=NP(N2CC2)(N2CC2)=NP(N2CC2)(N2CC2)=N1`, the T/C is, setting by setting: (dose: 1.0 mg/kg/injection, schedule: Q01DX009 (ip), vehicle: Klucel (hydroxypropylcellulose) (HPC)) 116 % of control and 94 % of control; (dose: 1.0 mg/kg/injection, schedule: Q02DX009 (ip), vehicle: Klucel (hydroxypropylcellulose) (HPC)) 113 % of control and 114 % of control; (dose: 2.0 mg/kg/injection, schedule: Q01DX009 (ip), vehicle: Klucel (hydroxypropylcellulose) (HPC)) 119 % of control; (dose: 2.0 mg/kg/injection, schedule: Q02DX009 (ip), vehicle: Klucel (hydroxypropylcellulose) (HPC)) 114 % of control and 106 % of control; (dose: 4.0 mg/kg/injection, schedule: Q02DX009 (ip), vehicle: Klucel (hydroxypropylcellulose) (HPC)) 120 % of control and 122 % of control; (dose: 8.0 mg/kg/injection, schedule: Q01DX009 (ip), vehicle: Klucel (hydroxypropylcellulose) (HPC)) 180 % of control. Also, the T/C is, setting by setting: (dose: 8.0 mg/kg/injection, schedule: Q02DX009 (ip), vehicle: Klucel (hydroxypropylcellulose) (HPC)) 117 % of control; (dose: 16.0 mg/kg/injection, schedule: Q02DX009 (ip), vehicle: Klucel (hydroxypropylcellulose) (HPC)) 195 % of control.
Regarding `C=C1N(C)c2ccccc2C1(C)C`, the T/C runs as follows: under setting [16], 110 % of control; under setting [2], 108 % of control.
In the case of `C/C=C(\C)C(=O)N[C@@H](c1ccccc1)[C@@H](O)C(=O)OC1C[C@@]2(O)[C@@H](OC(=O)c3ccccc3)[C@@H]3[C@]4(OC(C)=O)CO[C@@H]4C[C@H](O)[C@@]3(C)C(=O)[C@H](OC(C)=O)C(=C1C)C2(C)C` (some centres not stated), the T/C is 113 % of control (dose: 0.5 mg/kg/injection, schedule: Q01DX009 (ip), vehicle: saline + Tween-80 + alcohol); 106 % of control (dose: 1.0 mg/kg/injection, schedule: Q01DX009 (ip), vehicle: saline + Tween-80 + alcohol); 172 % of control (dose: 4.0 mg/kg/injection, schedule: Q01DX009 (ip), vehicle: saline + Tween-80 + alcohol).
On to `COc1cc(C(=O)c2cocc2C(=O)c2ccc3c(c2)OCO3)cc(OC)c1OC`, for which the T/C reads like this: under setting [6], 92 % of control and 101 % of control; under setting [7], 113 % of control and 91 % of control; under setting [8], 112 % of control; (dose: 400.0 mg/kg/injection, schedule: Q01DX009 (ip), vehicle: Klucel (hydroxypropylcellulose) (HPC)) 117 % of control.
Regarding `NC(=S)c1ncn(C2OC(COC=O)C(OC=O)C2OC=O)c1NC=O` (configuration not stated), the T/C under setting [5] was 100 % of control, the T/C under setting [6] is 100 % of control, the T/C under setting [7] was 92 % of control and the T/C under setting [8] was 87 % of control.
Take `OCC[N+]12CN3CN(CN(C3)C1)C2`: the T/C under setting [11] is 101 % of control; the T/C under setting [12] is 109 % of control; the T/C under setting [13] was 103 % of control; the T/C under setting [14] is 108 % of control; the T/C under setting [15] was 108 % of control.

The values are drawn from PubChem BioAssay AID200 (DTP/NCI, 2004).
